In patent US11331360B2, “Commiphora molmol (myrrh) resin extracts and uses thereof for wound healing and treatment and prevention of mucositis and other diseases” (Umayana LLC, priority 2018, dated 2022):

System: oral mucositis
Test: Treatment of oral mucositis in cancer subjects (case examples 2-6)
Type: in vivo, human
Details: grade IV mucositis, listed agents used with cryotherapy
Method: The efficacy and safety of the compositions comprising the disclosed acidic extract of myrrh resin were clinically assessed for prevention, treatment and/or improvement of oral and gastrointestinal mucositis.
In place of prophylactic incubation, the subject began using the composition comprising the disclosed acidic extract of myrrh resin in the form of gel four times a day.
(§1) The subject began using the composition comprising the disclosed acidic extract of myrrh resin in the form of gel four times a day.
G: oral examination performed on the second day of treatment. H: oral examination performed on the third day of treatment. I: oral examination performed on the fourth day of treatment.
as §1
D, E and F: oral examination performed on the first day of treatment. G, H, I and J: oral examination performed on the third day of treatment. K, L and M: oral examination performed on the fifth day of treatment.
B: oral examination performed on the first day of treatment. C: oral examination performed on the second day of treatment. D: oral examination performed on the third day of treatment. E: oral examination performed on the fourth day of treatment.

[1] = Example 2: Hodgkin's Lymphoma, high dose chemotherapy
[2] = Example 4: pancreatic adenocarcinoma, chemotherapy
[3] = Example 5: Larynx CA, induction chemotherapy
[4] = Example 6: larynx malignant neoplasma, radiation therapy

| SMILES | effect of earlier treatment of the oral lesions [1] | effect of earlier treatment of the oral lesions [2] | effect of earlier treatment of the oral lesions [3] | effect of earlier treatment of the oral lesions [4] |
| --- | --- | --- | --- | --- |
| N=C(NCCCCCCNC(=N)NC(=N)Nc1ccc(Cl)cc1)NC(=N)Nc1ccc(Cl)cc1.O=C(O)[C@H](O)[C@@H](O)[C@H](O)[C@H](O)CO.O=C(O)[C@H](O)[C@@H](O)[C@H](O)[C@H](O)CO [chlorhexidine gluconate] | not effective | mild decrease in mucositis | mild decrease in mucositis | not effective |
| O=C([O-])O.[Na+] [sodium bicarbonate] | not effective | mild decrease in mucositis | mild decrease in mucositis | not effective |
